According to patent publication US12655116B2, “Substituted isophthalic acid diamides” (Bayer Aktiengesellschaft, priority 2020, dated 2026):

What was measured:
ALOMY = assay: Pre-emergence herbicidal action against ALOMY; assay type: in vivo, Alopecurus myosuroides; details: 80 g/ha, pre-emergence, scored visually after 3 weeks vs untreated controls (100% = plants have died, 0% = like control plants)
Procedure, shortened: (§1)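 Greenhouse pots of sandy loam held seeds covered with soil, onto which the compound was applied before emergence. An aqueous suspension or emulsion of WP or EC was used at 600 to 800 l/ha with 0.2% wetting agent. Percent damage was judged visually at 3 weeks.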

AVEFA [1] = assay: Post-emergence herbicidal action against AVEFA; assay type: in vivo, Avena fatua; details: 20 g/ha, visual assessment about 3 weeks after treatment, 100% = plants have died, 0% = like control plants
Procedure, shortened: (§2)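 Foliar application at one-leaf stage of formulated test compounds, aqueous spray at 600–800 l/ha with 0.2% wetting agent. Greenhouse, optimal conditions, ~3 weeks; damage scored visually in % relative to untreated plants.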

AMARE [2] = assay: Pre-emergence herbicidal action against AMARE; assay type: in vivo, Amaranthus retroflexus
Procedure, shortened: as §1

PHBPU = assay: Post-emergence herbicidal action against PHBPU; assay type: in vivo, Pharbitis purpurea
Procedure, shortened: as §2

AMARE [3] = assay: Post-emergence herbicidal action against AMARE; assay type: in vivo, Amaranthus retroflexus; details: 20 g/ha, visual assessment about 3 weeks after treatment, 100% = plants have died, 0% = like control plants
Procedure, shortened: as §2

STEME [4] = assay: Pre-emergence herbicidal action against STEME; assay type: in vivo, Stellaria media
Procedure, shortened: as §1

DIGSA [5] = assay: Pre-emergence herbicidal action against DIGSA; assay type: in vivo, Digitaria sanguinalis
Procedure, shortened: as §1

ABUTH [6] = assay: Pre-emergence herbicidal action against ABUTH; assay type: in vivo, Abutilon theophrasti; details: for Pre-emergence action against ABUTH (herbicidal activity): 80 g/ha, scored visually after 3 weeks vs untreated controls (100% = plants have died, 0% = like control plants); for Pre-emergence action against ABUTH (herbicidal activity in percent): dosage 20 g/ha, scored visually after 3 weeks vs untreated controls, 100% = plants have died, 0% = like control plants
Procedure, shortened: as §1

VIOTR [7] = assay: Pre-emergence herbicidal action against VIOTR; assay type: in vivo, Viola tricolor
Procedure, shortened: as §1

MATIN [8] = assay: Pre-emergence herbicidal action against MATIN; assay type: in vivo, Matricaria inodora
Procedure, shortened: as §1

ABUTH [9] = assay: Post-emergence herbicidal action against ABUTH; assay type: in vivo, Abutilon theophrasti; details: visual assessment about 3 weeks after treatment vs untreated controls
Procedure, shortened: as §2

VIOTR [10] = assay: Post-emergence herbicidal action against VIOTR; assay type: in vivo, Viola tricolor; details: 20 g/ha
Procedure, shortened: as §2

VERPE [11] = assay: Post-emergence herbicidal action against VERPE; assay type: in vivo, Veronica persica; details: 20 g/ha
Procedure, shortened: as §2

POLCO = assay: Pre-emergence herbicidal action against POLCO; assay type: in vivo, Polygonum convolvulus
Procedure, shortened: as §1

AVEFA [12] = assay: Pre-emergence herbicidal action against AVEFA; assay type: in vivo, Avena fatua; details: 80 g/ha, pre-emergence
Procedure, shortened: as §1

SETVI [13] = assay: Pre-emergence herbicidal action against SETVI; assay type: in vivo, Setaria viridis; details: dosage 80 g/ha
Procedure, shortened: as §1

STEME [14] = assay: Post-emergence herbicidal action against STEME; assay type: in vivo, Stellaria media
Procedure, shortened: as §2

MATIN [15] = assay: Post-emergence herbicidal action against MATIN; assay type: in vivo, Matricaria inodora
Procedure, shortened: as §2

VERPE [16] = assay: Pre-emergence herbicidal action against VERPE; assay type: in vivo, Veronica persica; details: dosage 80 g/ha
Procedure, shortened: as §1

ECHCG [17] = assay: Post-emergence herbicidal action against ECHCG; assay type: in vivo, Echinochloa crus-galli
Procedure, shortened: as §2

ECHCG [18] = assay: Pre-emergence herbicidal action against ECHCG; assay type: in vivo, Echinochloa crus-galli; details: 80 g/ha
Procedure, shortened: as §1

SETVI [19] = assay: Post-emergence herbicidal action against SETVI; assay type: in vivo, Setaria viridis
Procedure, shortened: as §2

DIGSA [20] = assay: Post-emergence herbicidal action against DIGSA; assay type: in vivo, Digitaria sanguinalis
Procedure, shortened: as §2

[21] = 20 g/ha, scored visually after 3 weeks vs untreated controls, 100% = plants have died, 0% = like control plants
[22] = 80 g/ha, scored visually after 3 weeks vs untreated controls (100% = plants have died, 0% = like control plants)

Compound | Post-emergence action at 20 g/ha against AVEFA in % (AVEFA [1]) [%] | Pre-emergence action against AMARE in % (AMARE [2]; [21]) [%] | Pre-emergence action against AMARE in % (AMARE [2]; [22]) [%] | Post-emergence action against PHBPU in % (PHBPU; dosage 20 g/ha) [%] | Post-emergence action at 20 g/ha against AMARE in % (AMARE [3]) [%] | Pre-emergence action against STEME in % (STEME [4]; dosage 20 g/ha) [%] | Pre-emergence action against STEME in % (STEME [4]; dosage 80 g/ha) [%] | Pre-emergence action against DIGSA in % (DIGSA [5]; dosage 20 g/ha) [%] | Pre-emergence action against DIGSA in % (DIGSA [5]; dosage 80 g/ha) [%] | Pre-emergence action against ABUTH (herbicidal activity) (ABUTH [6]) [%] | Pre-emergence action against ABUTH (herbicidal activity in percent) (ABUTH [6]) [%] | Pre-emergence action against VIOTR in % (VIOTR [7]; dosage 80 g/ha) [%] | Pre-emergence action against MATIN in % (MATIN [8]; dosage 20 g/ha) [%] | Pre-emergence action against MATIN in % (MATIN [8]; dosage 80 g/ha) [%] | Post-emergence action against ABUTH in % (ABUTH [9]; dosage 5 g/ha) [%] | Post-emergence action against ABUTH in % (ABUTH [9]; dosage 20 g/ha) [%] | Pre-emergence action against POLCO in % (POLCO; dosage 20 g/ha) [%] | Pre-emergence action against POLCO in % (POLCO; dosage 80 g/ha) [%] | Pre-emergence action against AVEFA in % (AVEFA [12]) [%] | Pre-emergence action against SETVI in % (SETVI [13]) [%] | further results
CCn1nnnc1NC(=O)c1ccc(C(F)F)c(C(=O)NC)c1C [Example 2-44] | 80 | 100 | 100 | 80 | 100 | 90 | 100 | 100 | 100 | 100 | 100 | 100 | 90 | 100 | 80 | 90 | 80 | 90 | 90 | 100 | Pre-emergence action against ALOMY (herbicidal activity) (ALOMY): 80%; Post-emergence action against PHBPU in % (PHBPU; dosage 5 g/ha): 80%; Pre-emergence action against VIOTR in % (VIOTR [7]; dosage 20 g/ha): 100%; Post-emergence action against VIOTR in % (VIOTR [10]): 80%; Post-emergence action against VERPE in % (VERPE [11]): 80%; Post-emergence action against STEME in % (STEME [14]; 20 g/ha): 80%; Post-emergence action against MATIN in % (MATIN [15]; dosage 5 g/ha): 80%; Post-emergence action against MATIN in % (MATIN [15]; dosage 20 g/ha): 80%; Pre-emergence action against VERPE in % (VERPE [16]): 90%; Post-emergence action against ECHCG in % (ECHCG [17]; dosage 20 g/ha): 80%
CNC(=O)c1c(C(F)F)ccc(C(=O)Nc2nnco2)c1SC [Example 5-74] | 80 | 100 | 100 | 100 | 100 | 90 | 100 | 90 | 100 | 100 | 80 | 100 | 80 | 90 | 90 | 90 | 80 | 80 | 80 | 90 | Pre-emergence action against ECHCG in % (ECHCG [18]): 90%; Post-emergence action against SETVI in % (SETVI [19]; dosage 5 g/ha): 80%; Post-emergence action against SETVI in % (SETVI [19]; dosage 20 g/ha): 90%; Post-emergence action against DIGSA in % (DIGSA [20]; 5 g/ha): 90%; Post-emergence action against DIGSA (DIGSA [20]; 20 g/ha): 90%; Post-emergence action against STEME in % (STEME [14]; 20 g/ha): 90%; Post-emergence action against STEME in % (STEME [14]; dosage 5 g/ha): 80%; Post-emergence action against ECHCG in % (ECHCG [17]; dosage 5 g/ha): 80%; Post-emergence action against ECHCG in % (ECHCG [17]; dosage 20 g/ha): 80%
